Results taken from PubChem BioAssay AID2060893 (Molecular Pharmacology Branch, DTP, NCI, 2025).
pIC50: −log10 of the molar value.

Test system: K86415-001-R-J1-PDC complex spheroids, viability
Experiment: Anticancer human tumor K86415-001-R-J1-PDC patient-derived lung adenocarcinoma cell line growth inhibition [RAS]
Settings: for pIC50: curve of first compound; for viability, T/C: stronger effect = lower value; active = viability on the fitted dose curve at most 10% of control; inactive = the rest
From the text: RAS pathway inhibitors in Combinations in Complex Spheroids
A high-throughput screen of multi-cell type tumor spheroids was designed to identify active combinations of RAS pathway inhibitors and targeted small molecules. Complex spheroids include a stromal component modeled by human endothelial cells (HUVEC) and fibroblasts modeled by human mesenchymal stem cells (MSCs). The concentration ranges selected for each drug and investigational agent were based upon clinically achievable concentrations if the clinical Cmax of the agent was known.
Compounds. The drugs and investigational agents: abemaciclib (NSC768073), cobimetinib (NSC768068), divarasib (GDC6063, NSC841802), docetaxel (NSC628503), GDC-1971 (RLY-1971, NSC841576), gemcitabine (NSC613327), inavolisib (NSC800729), ipatasertib (NSC767898), KB-0742 (NSC834161), MRTX-1133 (NSC836407), osimertinib (NSC779217), RMC-4630 (NSC839698), RMC-6236 (NSC851965), RMC-6291 (NSC852671), Ro-3306 (NSC812927), sapanisertib (NSC764658), SN-38 (NSC673596), staurosporine (NSC755774), SY5609 (NSC837396), and tovorafenib (DAY101, NSC766906), were obtained from the National Cancer Institute (NCI) Developmental Therapeutics Program Chemical Repository. The FDA-approved anticancer drug set is available from the NCI Developmental Therapeutics Program. […] The stock solutions were prepared in dimethyl sulfoxide (DMSO, Sigma-Aldrich, St. Louis, MO, cat. D2650) at 800-fold the tested concentration and stored at -70 degrees C prior to their use. All drugs and investigational agents were tested over a range starting from a high concentration at or near the clinical Cmax and decreasing in half-log increments. If the clinical Cmax for an agent had not been determined, the highest concentration tested was 10 microM.
Cell Culture. All cells were maintained in an incubator at 37 degrees C and 5% CO2 with 95% humidity. The PDC lines were cultured according to standard operating procedures established by the NCI PDMR. All PDCs were thawed and cultured in Matrigel-coated flasks prepared with a working solution of 1X Ham's F-12 nutrient mix, without supplementation (Invitrogen, Waltham, MA, cat. 11765054), 100 U/mL penicillin-streptomycin (Invitrogen, cat. 15140122), and 2.5% Matrigel (Corning Inc., Corning, NY, cat. 354248) for the first three passages. The 362531-283-R-J2-PDC and 782815-120-R-J1-PDC lines were cultured in 6C/Colon 1B media, which includes advanced DMEM/F-12 (Thermo Fisher Scientific, cat. 12634028), 10 mM HEPES (Thermo Fisher Scientific, cat. 15630080), 1X GlutaMAX supplement (Thermo Fisher Scientific, cat. 35050061), 0.1 mg/mL primocin (InvivoGen, San Diego, CA, cat. ant-pm-2), 10% defined fetal bovine serum, heat inactivated (HyClone Laboratories Inc., Logan, UT, cat. SH30070.03HI), 50% L-WRN conditioned media (ATCC, cat. CRL-3276), 1.25 mM N-Acetyl-L-cysteine (Sigma-Aldrich, cat. A9165), 10 mM nicotinamide (Sigma-Aldrich, cat. N0636), 1X B-27 supplement (Thermo Fisher Scientific, cat. 17504044), 1X N-2 supplement (Thermo Fisher Scientific, cat. 17502048), 50 ng/mL human EGF (Thermo Fisher Scientific, cat. PHG0311), and 10 microM Y-27632 dihydrochloride (Tocris Bioscience, cat. 1254). The K12877-001-R-J1-PDC line was cultured in 6I media, which includes all 6C/Colon 1B media plus 10 ng/mL human FGF-10 (PeproTech, cat. 100-26), 1 ng/mL human FGF-2 (PeproTech, cat. 100-18B), 1 µM prostaglandin E2 (Tocris Bioscience, cat. 2296), […] hydrocortisone (Sigma-Aldrich, cat. H4001), and […] bovine insulin (Sigma-Aldrich, cat. I6634). The K86415-001-R-J1-PDC line was cultured in 6D media, which includes all 6C/Colon 1B media components minus the L-WRN conditioned media. The 485176-168-R4-J1-PDC was cultured in PANC media, which includes all 6C/Colon 1B media plus 100 ng/mL human FGF-10 (PeproTech, cat. 100-26), 500 nM SB-431542 (Selleckchem, cat. S1067), and 10 nM gastrin (Tocris Bioscience, cat. 3006). […]
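Note: spheroids exposed to agents for seven days before readout.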

C=CC(=O)Nc1cc(Nc2nccc(-c3cn(C)c4ccccc34)n2)c(OC)cc1N(C)CCN(C)C + C#Cc1c(F)ccc2cc(O)cc(-c3ncc4c(N5CC6CCC(C5)N6)nc(OCC56CCCN5CC(F)C6)nc4c3F)c12
inactive: viability, T/C (second compound 0.0316 µM, first compound 0.00316 µM) 95.1% | viability, T/C (second compound 0.0316 µM, first compound 0.01 µM) 99.4% | viability, T/C (second compound 0.0316 µM, first compound 0.0316 µM) 88.3% | viability, T/C (second compound 0.0316 µM, first compound 0.1 µM) 73.1% | viability, T/C (second compound 0.0316 µM, first compound 0.316 µM) 58.4% | viability, T/C (second compound 0.0316 µM, first compound 1 µM) 38.9% | viability, T/C (second compound 0.1 µM, first compound 0.00316 µM) 84.5% | viability, T/C (second compound 0.1 µM, first compound 0.01 µM) 99.3% | viability, T/C (second compound 0.1 µM, first compound 0.0316 µM) 88.1% | viability, T/C (second compound 0.1 µM, first compound 0.1 µM) 67.7% | viability, T/C (second compound 0.1 µM, first compound 0.316 µM) 50.8% | viability, T/C (second compound 0.1 µM, first compound 1 µM) 31.2% | viability, T/C (second compound 0.316 µM, first compound 0.00316 µM) 87.8% | viability, T/C (second compound 0.316 µM, first compound 0.01 µM) 92.3% | viability, T/C (second compound 0.316 µM, first compound 0.0316 µM) 72.3% | viability, T/C (second compound 0.316 µM, first compound 0.1 µM) 56.1% | viability, T/C (second compound 0.316 µM, first compound 0.316 µM) 46.1% | viability, T/C (second compound 0.316 µM, first compound 1 µM) 21.8% | viability, T/C (second compound 1 µM, first compound 0.00316 µM) 61.1% | viability, T/C (second compound 1 µM, first compound 0.01 µM) 59.2% | viability, T/C (second compound 1 µM, first compound 0.0316 µM) 52.9% | viability, T/C (second compound 1 µM, first compound 0.1 µM) 40.8% | viability, T/C (second compound 1 µM, first compound 0.316 µM) 24.2% | viability, T/C (second compound 1 µM, first compound 1 µM) 14.4% | viability, T/C (second compound 3.16 µM, first compound 0.00316 µM) 32.3% | viability, T/C (second compound 3.16 µM, first compound 0.01 µM) 33.8% | viability, T/C (second compound 3.16 µM, first compound 0.0316 µM) 27.2% | viability, T/C (second compound 3.16 µM, first compound 0.1 µM) 20.4% | viability, T/C (second compound 3.16 µM, first compound 0.316 µM) 13.6% | viability, T/C (second compound 10 µM, first compound 0.00316 µM) 30.3% | viability, T/C (second compound 10 µM, first compound 0.01 µM) 16.9% | viability, T/C (second compound 10 µM, first compound 0.0316 µM) 13.9% | viability, T/C (second compound 10 µM, first compound 0.1 µM) 10.1%
6.72: pIC50 (second compound 0.316 µM)
active: viability, T/C (second compound 3.16 µM, first compound 1 µM) 9.53% | viability, T/C (second compound 10 µM, first compound 0.316 µM) 10.4% | viability, T/C (second compound 10 µM, first compound 1 µM) 7%
> 8.50: pIC50 (second compound 3.16 µM) | pIC50 (second compound 10 µM)
6.54: pIC50 (second compound 0.1 µM)
7.37: pIC50 (second compound 1 µM)
6.31: pIC50 (second compound 0.0316 µM)
